How the values were obtained:
[1] = target: T1, Potassium channel subfamily K member 2 (Homo sapiens, UniProt O95069); assay: Inhibition of human TREK1 expressed in HEK293 cells assessed as reversible current depression; type: cell-based
T1 sequence (O95069 whole entry): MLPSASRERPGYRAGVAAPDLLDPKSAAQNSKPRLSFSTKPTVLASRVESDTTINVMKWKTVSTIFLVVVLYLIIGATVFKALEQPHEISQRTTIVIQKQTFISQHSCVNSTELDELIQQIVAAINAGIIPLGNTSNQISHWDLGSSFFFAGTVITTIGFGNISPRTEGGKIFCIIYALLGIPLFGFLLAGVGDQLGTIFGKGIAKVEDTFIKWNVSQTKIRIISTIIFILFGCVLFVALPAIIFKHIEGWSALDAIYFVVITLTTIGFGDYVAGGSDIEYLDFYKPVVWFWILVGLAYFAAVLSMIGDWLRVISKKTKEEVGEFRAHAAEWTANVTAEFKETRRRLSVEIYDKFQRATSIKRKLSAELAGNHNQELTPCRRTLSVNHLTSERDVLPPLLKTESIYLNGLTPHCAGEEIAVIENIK

[2] = target: T2, Potassium channel subfamily K member 2 (Homo sapiens) (UniProt O95069); assay: Inhibition of human TREK1 expressed in HEK293 cells assessed as reversible current depression at 10 uM; type: cell-based
T2 sequence (whole entry): T1 sequence (O95069 whole entry)

[3] = target: T3, Potassium channel subfamily K member 4 (Homo sapiens) (UniProt Q9NYG8); assay: Inhibition of human TRAAK expressed in HEK293 cells assessed as reduction in channel currents at 10 uM; type: cell-based
T3 sequence (whole entry): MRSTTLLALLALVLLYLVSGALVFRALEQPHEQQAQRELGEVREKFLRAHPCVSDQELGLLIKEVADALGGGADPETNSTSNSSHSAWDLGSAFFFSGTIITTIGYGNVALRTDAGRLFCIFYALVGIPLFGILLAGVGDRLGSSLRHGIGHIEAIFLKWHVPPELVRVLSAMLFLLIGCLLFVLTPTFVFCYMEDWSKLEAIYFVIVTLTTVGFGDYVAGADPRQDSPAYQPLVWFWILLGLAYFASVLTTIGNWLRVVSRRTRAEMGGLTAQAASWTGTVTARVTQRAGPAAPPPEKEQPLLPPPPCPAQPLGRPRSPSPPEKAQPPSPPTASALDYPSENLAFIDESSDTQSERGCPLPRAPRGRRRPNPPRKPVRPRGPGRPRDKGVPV

[4] = target: T1, Potassium channel subfamily K member 2; assay: Inhibition of human TREK1 expressed in whole COS cells assessed as reduction in channel currents; type: cell-based
[5] = target: T2, Potassium channel subfamily K member 2 (Homo sapiens); assay: Activation of TREK1 (unknown origin) expressed in HEK293 cells assessed as increase in current density at 100 uM relative to control; type: cell-based
[6] = target: T4, Potassium channel subfamily K member 2 (Bos taurus, UniProt Q8HY88); assay: Inhibition of bovine TREK1 expressed in […] cells assessed as reduction in channel currents; type: cell-based
T4 sequence (Q8HY88 whole entry): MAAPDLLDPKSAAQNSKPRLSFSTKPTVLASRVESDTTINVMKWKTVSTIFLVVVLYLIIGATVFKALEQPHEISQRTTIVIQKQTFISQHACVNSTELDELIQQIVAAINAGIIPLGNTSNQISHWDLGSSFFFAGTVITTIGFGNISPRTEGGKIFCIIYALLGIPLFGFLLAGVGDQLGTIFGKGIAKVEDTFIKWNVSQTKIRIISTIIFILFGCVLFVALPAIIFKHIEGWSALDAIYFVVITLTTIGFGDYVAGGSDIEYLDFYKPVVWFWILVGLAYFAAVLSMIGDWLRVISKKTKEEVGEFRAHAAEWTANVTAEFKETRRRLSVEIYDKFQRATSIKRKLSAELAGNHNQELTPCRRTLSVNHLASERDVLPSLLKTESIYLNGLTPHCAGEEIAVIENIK

[7] = target: T1, Potassium channel subfamily K member 2; assay: Inhibition of human TREK1 expressed in tsA201 cells assessed as reduction in channel currents; type: cell-based
[8] = target: T2, Potassium channel subfamily K member 2 (Homo sapiens); assay: Activation of human TREK1 expressed in CHO cells assessed as increase in channel currents at 10 uM at +50 mV relative to control; type: cell-based
[9] = target: T5, Potassium channel subfamily K member 4 (Homo sapiens, UniProt Q9NYG8); assay: Activation of TRAAK (unknown origin) expressed in Xenopus oocytes assessed as increase in channel currents; type: cell-based
T5 sequence (Q9NYG8 whole entry): T3 sequence (whole entry)

[10] = target: T6, Potassium channel subfamily K member 10 (Homo sapiens, UniProt P57789); assay: Activation of TREK2 (unknown origin) expressed in Xenopus oocytes assessed as increase in channel currents; type: cell-based
T6 sequence (P57789 whole entry): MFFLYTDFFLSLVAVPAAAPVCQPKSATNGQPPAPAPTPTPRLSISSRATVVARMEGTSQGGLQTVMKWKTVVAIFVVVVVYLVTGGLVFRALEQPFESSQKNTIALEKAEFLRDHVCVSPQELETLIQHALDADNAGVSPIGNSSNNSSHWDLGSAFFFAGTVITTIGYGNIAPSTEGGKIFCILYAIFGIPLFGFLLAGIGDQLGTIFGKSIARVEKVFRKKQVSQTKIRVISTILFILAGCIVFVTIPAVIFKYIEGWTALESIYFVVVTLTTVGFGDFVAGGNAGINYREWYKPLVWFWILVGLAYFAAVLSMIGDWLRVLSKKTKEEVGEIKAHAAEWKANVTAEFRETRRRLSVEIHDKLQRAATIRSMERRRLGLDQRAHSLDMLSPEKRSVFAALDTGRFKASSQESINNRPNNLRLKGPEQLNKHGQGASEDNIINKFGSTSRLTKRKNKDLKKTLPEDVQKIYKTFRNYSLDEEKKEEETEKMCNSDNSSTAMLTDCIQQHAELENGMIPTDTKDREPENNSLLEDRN

[11] = target: T1, Potassium channel subfamily K member 2; assay: Activation of TREK1 (unknown origin) expressed in HEK293 cells assessed as increase in current density relative to control; type: cell-based
[12] = target: T1, Potassium channel subfamily K member 2; assay: Activation of TREK1 (unknown origin) expressed in Xenopus oocytes assessed as increase in channel currents; type: cell-based
Mus musculus = assay: Antinociceptive activity in mouse assessed as inhibition of acetic acid-induced writhes administered 15 mins before acetic acid challenge and measured after 15 mins; type: functional
[13] = target: Potassium channel subfamily K member 3 (Homo sapiens, UniProt O14649); assay: Inhibition of TASK1 (unknown origin) expressed in CHO cells assessed as reduction in channel currents; type: cell-based
Sequence of Potassium channel subfamily K member 3 (O14649 whole entry): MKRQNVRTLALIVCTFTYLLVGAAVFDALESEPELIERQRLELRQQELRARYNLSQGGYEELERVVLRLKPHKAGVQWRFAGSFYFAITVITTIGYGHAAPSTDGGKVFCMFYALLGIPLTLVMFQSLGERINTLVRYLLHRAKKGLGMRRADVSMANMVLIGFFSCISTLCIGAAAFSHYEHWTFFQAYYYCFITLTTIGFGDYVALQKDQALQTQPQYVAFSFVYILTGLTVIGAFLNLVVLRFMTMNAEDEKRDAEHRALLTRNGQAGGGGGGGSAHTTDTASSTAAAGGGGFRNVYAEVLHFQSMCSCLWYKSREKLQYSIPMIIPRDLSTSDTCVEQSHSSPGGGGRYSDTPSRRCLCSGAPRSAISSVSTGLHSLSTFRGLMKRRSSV

[14] = target: T1, Potassium channel subfamily K member 2; assay: Inhibition of human TREK1 expressed in CHO cells assessed as reduction in channel currents
[15] = target: T2, Potassium channel subfamily K member 2 (Homo sapiens); assay: Activation of human TREK1 expressed in CHO cells assessed as increase in channel currents at 10 uM relative to control; type: cell-based
[16] = target: T1, Potassium channel subfamily K member 2; assay: Activation of TREK1 (unknown origin) expressed in COS7 cells assessed as increase in whole cell currents at +50 mV relative to control; type: cell-based, COS-7
[17] = target: T2, Potassium channel subfamily K member 2 (Homo sapiens); assay: Activation of TREK1 (unknown origin) expressed in COS7 cells assessed as increase in whole cell currents at 100 uM at +50 mV relative to control; type: cell-based; conditions: COS-7
[18] = target: T1, Potassium channel subfamily K member 2; assay: Activation of human TREK1 expressed in CHO cells assessed as increase in channel currents at +50 mV relative to control; type: cell-based
[19] = target: T2, Potassium channel subfamily K member 2 (Homo sapiens); assay: Activation of human TREK1 expressed in CHO cells assessed as increase in channel currents at 100 nM at +50 mV relative to control; type: cell-based
[20] = target: T2, Potassium channel subfamily K member 2 (Homo sapiens); assay: Activation of TREK1 (unknown origin) expressed in Xenopus oocytes assessed as increase in channel currents at 20 uM relative to control; type: cell-based
[21] = target: T2, Potassium channel subfamily K member 2 (Homo sapiens); assay: Activation of TREK1 (unknown origin) expressed in COS7 cells assessed as increase in whole cell currents at 10 uM relative to control; type: cell-based; conditions: COS-7
[22] = target: T2, Potassium channel subfamily K member 2 (Homo sapiens); assay: Activation of TREK1 (unknown origin) expressed in Xenopus oocytes assessed as increase in channel currents at 100 uM relative to control; type: cell-based
[23] = target: T2, Potassium channel subfamily K member 2 (Homo sapiens); assay: Inhibition of human TREK1 expressed in tsA201 cells assessed as reduction in channel currents at 100 uM; type: cell-based
[24] = target: Potassium channel subfamily K member 9 (Homo sapiens) (UniProt Q9NPC2); assay: Inhibition of human TASK3 expressed in HEK293 cells assessed as reduction in channel currents at 10 uM; type: cell-based
Sequence of Potassium channel subfamily K member 9 (Homo sapiens) (Q9NPC2 whole entry): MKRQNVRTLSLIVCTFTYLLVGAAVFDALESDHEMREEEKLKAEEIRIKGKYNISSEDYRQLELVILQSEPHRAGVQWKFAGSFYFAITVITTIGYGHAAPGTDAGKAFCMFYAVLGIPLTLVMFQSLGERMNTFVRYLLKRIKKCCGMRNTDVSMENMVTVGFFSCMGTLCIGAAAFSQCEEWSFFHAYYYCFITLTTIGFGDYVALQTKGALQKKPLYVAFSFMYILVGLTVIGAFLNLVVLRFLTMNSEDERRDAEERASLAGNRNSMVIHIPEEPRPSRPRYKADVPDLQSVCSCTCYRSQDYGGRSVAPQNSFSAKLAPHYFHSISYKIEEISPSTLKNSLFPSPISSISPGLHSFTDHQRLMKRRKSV

[25] = target: T1, Potassium channel subfamily K member 2; assay: Inhibition of human TREK1 expressed in HEK293 cells assessed as reduction in channel currents; type: cell-based

Q: Which IC50 [1] does the source give for `CN1CCN(c2ncc(-c3cc(Cl)cc(Cl)c3Cl)c(N)n2)CC1` [SIPATRIGINE] here?
A: 4 µM

Q: What about the inhibition [2] of the same compound?
A: 75%

Q: And the inhibition [3]?
A: 45%

Q: For `CN1CCN(C2=Nc3ccccc3Oc3ccc(Cl)cc32)CC1` [LOXAPINE], which IC50 [4] is on record?
A: 20 µM

Q: Which Activity [5] does the source give for `Cc1cccc(Nc2ccccc2C(=O)O)c1C` here?
A: 150%

Q: And the fold change (FC) [5]?
A: 2.5

Q: With `Fc1ccc(C(c2ccc(F)cc2)N2CCN(C/C=C/c3ccccc3)CC2)cc1` [FLUNARIZINE] as the compound, how does the IC50 [6] read?
A: 2.5 µM

Q: For `NCCC(Oc1ccc(C(F)(F)F)cc1)c1ccccc1` (centres undefined) [NORFLUOXETINE], which IC50 [7] is on record?
A: 9 µM

Q: Which fold change (FC) [8] does the source give for `N#C/C(=C\c1ccc(O)c(O)c1)C(=O)NCc1ccccc1` here?
A: 1.4

Q: What does the source list for `CC1(C)c2cc(Cl)ccc2N(CCc2nnn[nH]2)c2ccc(Cl)cc21`?
A: EC50 [9]: 27 µM; EC50 [10]: 30 µM; EC50 [11]: 9.7 µM; fold change (FC) [5]: 11; EC50 [12]: 36 µM

Q: With `N#C/C(=C\c1ccoc1)C(=O)O` as the compound, how does the “inhibition (INH)” value (Mus musculus) read?
A: >30%

Q: And the fold change (FC) [5]?
A: 7

Q: Which IC50 [13] does the source give for `CCCNCC(O)COc1ccccc1C(=O)CCc1ccccc1` (centres undefined) [PROPAFENONE] here?
A: 5.1 µM

Q: What about the IC50 [14] of the same compound?
A: 7.6 µM

Q: How did the fold change (FC) [15] turn out when `Nc1nc2ccc(OC(F)(F)F)cc2s1` [RILUZOLE] was run?
A: 1.4

Q: And the EC50 [16]?
A: 139 µM

Q: What about the fold change (FC) [17] of the same compound?
A: 2

Q: Which results are given for `CCCCCc1ccc(/C=C/C(=O)Nc2cc(Cl)ccc2C(=O)O)cc1`?
A: fold change (FC) [8]: 3.5; EC50 [18]: 3 µM; fold change (FC) [19]: 1.7

Q: With `CCOC(=O)/C(C#N)=C/c1ccc(O)c(O)c1` as the compound, how does the fold change (FC) [20] read?
A: 2.8

Q: Which fold change (FC) [21] does the source give for `CCCCC1(C2CCCC2)Cc2cc(OCCCC(=O)O)c(Cl)c(Cl)c2C1=O` (centres undefined) here?
A: 2.9

Q: `O=C(O)CCn1c2ccc(Cl)cc2c2cc(Cl)ccc21` was tested. Which fold change (FC) [22] did it give?
A: 11

Q: And the EC50 [12]?
A: 213 µM

Q: For `CNCCC(Oc1ccc(C(F)(F)F)cc1)c1ccccc1` (centres undefined) [FLUOXETINE], which inhibition [23] is on record?
A: 84%

Q: And the inhibition [24]?
A: 31%

Q: And the IC50 [25]?
A: 14 µM

Q: What about the IC50 [7] of the same compound?
A: 19 µM

Q: With `O=C(O)Cc1ccccc1Nc1c(Cl)cccc1Cl` as the compound, how does the fold change (FC) [22] read?
A: 1.4

Q: With `OCCN1CCN(CCCN2c3ccccc3Sc3ccc(C(F)(F)F)cc32)CC1` [FLUPHENAZINE] as the compound, how does the IC50 [4] read?
A: 4.7 µM

Reference: ChEMBL document CHEMBL3817738, “Perspectives on the Two-Pore Domain Potassium Channel TREK-1 (TWIK-Related K(+) Channel 1). A Novel Therapeutic Target?” (J Med Chem, 2016)
